Test results as given in ChEMBL document CHEMBL3885881, “DrugMatrix”.

Organism: Rattus norvegicus
Test: DrugMatrix - Regimen: Daily Repeat
Format: toxicity, organism-based, Sprague-Dawley
Parameters: regimen Daily Repeat, gender Male, age 6-8 weeks
Conditions: in vivo, po, route oral GAVAGE, vehicle .5 % CMC; for ABSOLUTE BASOPHIL / ABSOLUTE EOSINOPHIL / ABSOLUTE LYMPHOCYTE / ABSOLUTE MONOCYTE / ABSOLUTE SEGMENTED NEUTROPHIL / BASOPHIL / EOSINOPHIL / ERYTHROCYTE COUNT / HEMATOCRIT / HEMOGLOBIN / LEUKOCYTE COUNT / LYMPHOCYTE / MEAN CORPUSCULAR HEMOGLOBIN / MEAN CORPUSCULAR HEMOGLOBIN CONCENTRATION / MEAN CORPUSCULAR VOLUME / MONOCYTE / NEUTROPHIL / NUCLEATED RED BLOOD CELLS / PLATELET COUNT: tissue Blood; for ALANINE AMINOTRANSFERASE / ALBUMIN / ALKALINE PHOSPHATASE / ASPARTATE AMINOTRANSFERASE / BLOOD UREA NITROGEN / CARBON DIOXIDE / CHLORIDE / CHOLESTEROL / CREATINE PHOSPHOKINASE / CREATININE / GLUCOSE / LACTATE DEHYDROGENASE / LIPASE / PHOSPHORUS / POTASSIUM / SODIUM / TOTAL BILIRUBIN / TOTAL PROTEIN / URIC ACID: tissue Plasma
[1] = 0.3 mg/kg, 72 h, dose level Low, time 3 day
[2] = 0.3 mg/kg, 120 h, dose level Low, time 5 day
[3] = 100 mg/kg, 72 h, dose level High, time 3 day
[4] = 100 mg/kg, 120 h, dose level High, time 5 day

SMILES: CN1[C@@H]2CC[C@H]1C[C@@H](OC(=O)c1c[nH]c3ccccc13)C2 [TROPISETRON]
- ABSOLUTE BASOPHIL [1]: 0 CELLS/uL
- ABSOLUTE EOSINOPHIL [1]: 256.33 CELLS/uL
- ABSOLUTE LYMPHOCYTE [1]: 11976 CELLS/uL
- ABSOLUTE MONOCYTE [1]: 96 CELLS/uL
- ABSOLUTE SEGMENTED NEUTROPHIL [1]: 905 CELLS/uL
- BASOPHIL [1]: 0%
- EOSINOPHIL [1]: 2%
- ERYTHROCYTE COUNT [1]: 5.89 x10E6/uL
- HEMATOCRIT [1]: 37.4%
- HEMOGLOBIN [1]: 14.07 G/DL
- LEUKOCYTE COUNT [1]: 13.23 x10E3/uL
- LYMPHOCYTE [1]: 90.67%
- MEAN CORPUSCULAR HEMOGLOBIN [1]: 23.87 pg
- MEAN CORPUSCULAR HEMOGLOBIN CONCENTRATION [1]: 37.63 G/DL
- MEAN CORPUSCULAR VOLUME [1]: 63.5 fL
- MONOCYTE [1]: 0.67%
- NEUTROPHIL [1]: 6.67%
- NUCLEATED RED BLOOD CELLS [1]: 0 /100WBC
- PLATELET COUNT [1]: 1325.33 x10E3/uL
- ALANINE AMINOTRANSFERASE [1]: 46.33 u/L
- ALBUMIN [1]: 4.43 G/DL
- ALKALINE PHOSPHATASE [1]: 408.67 u/L
- ASPARTATE AMINOTRANSFERASE [1]: 87.33 u/L
- BLOOD UREA NITROGEN [1]: 13 mg/dL
- CARBON DIOXIDE [1]: 26 mmol/L
- CHLORIDE [1]: 106 MEQ/L
- CHOLESTEROL [1]: 71.33 mg/dL
- CREATINE PHOSPHOKINASE [1]: 621.67 u/L
- CREATININE [1]: 0.21 mg/dL
- GLUCOSE [1]: 160.67 mg/dL
- LACTATE DEHYDROGENASE [1]: 123.67 u/L
- LIPASE [1]: 9 u/L
- PHOSPHORUS [1]: 14.4 mg/dL
- POTASSIUM [1]: 6.64 MEQ/L
- SODIUM [1]: 147.37 MEQ/L
- TOTAL BILIRUBIN [1]: 0.2 mg/dL
- TOTAL PROTEIN [1]: 6.17 G/DL
- URIC ACID [1]: 2.47 mg/dL
- ABSOLUTE BASOPHIL [2]: 0 CELLS/uL
- ABSOLUTE EOSINOPHIL [2]: 244.67 CELLS/uL
- ABSOLUTE LYMPHOCYTE [2]: 13752.67 CELLS/uL
- ABSOLUTE MONOCYTE [2]: 213.33 CELLS/uL
- ABSOLUTE SEGMENTED NEUTROPHIL [2]: 1056 CELLS/uL
- BASOPHIL [2]: 0%
- EOSINOPHIL [2]: 1.67%
- ERYTHROCYTE COUNT [2]: 5.41 x10E6/uL
- HEMATOCRIT [2]: 34.5%
- HEMOGLOBIN [2]: 13.27 G/DL
- LEUKOCYTE COUNT [2]: 15.27 x10E3/uL
- LYMPHOCYTE [2]: 90.33%
- MEAN CORPUSCULAR HEMOGLOBIN [2]: 24.57 pg
- MEAN CORPUSCULAR HEMOGLOBIN CONCENTRATION [2]: 38.43 G/DL
- MEAN CORPUSCULAR VOLUME [2]: 63.8 fL
- MONOCYTE [2]: 1.33%
- NEUTROPHIL [2]: 6.67%
- NUCLEATED RED BLOOD CELLS [2]: 0 /100WBC
- PLATELET COUNT [2]: 1293.33 x10E3/uL
- ALANINE AMINOTRANSFERASE [2]: 47.33 u/L
- ALBUMIN [2]: 4.13 G/DL
- ALKALINE PHOSPHATASE [2]: 386.33 u/L
- ASPARTATE AMINOTRANSFERASE [2]: 80 u/L
- BLOOD UREA NITROGEN [2]: 17.67 mg/dL
- CARBON DIOXIDE [2]: 25.33 mmol/L
- CHLORIDE [2]: 106.67 MEQ/L
- CHOLESTEROL [2]: 71.33 mg/dL
- CREATINE PHOSPHOKINASE [2]: 310 u/L
- CREATININE [2]: 0.21 mg/dL
- GLUCOSE [2]: 162 mg/dL
- LACTATE DEHYDROGENASE [2]: 329 u/L
- LIPASE [2]: 9 u/L
- PHOSPHORUS [2]: 13.37 mg/dL
- POTASSIUM [2]: 6 MEQ/L
- SODIUM [2]: 145.27 MEQ/L
- TOTAL BILIRUBIN [2]: 0.27 mg/dL
- TOTAL PROTEIN [2]: 6.37 G/DL
- URIC ACID [2]: 1.77 mg/dL
- ABSOLUTE BASOPHIL [3]: 0 CELLS/uL
- ABSOLUTE EOSINOPHIL [3]: 0 CELLS/uL
- ABSOLUTE LYMPHOCYTE [3]: 8279 CELLS/uL
- ABSOLUTE MONOCYTE [3]: 180 CELLS/uL
- ABSOLUTE SEGMENTED NEUTROPHIL [3]: 707.67 CELLS/uL
- BASOPHIL [3]: 0%
- EOSINOPHIL [3]: 0%
- ERYTHROCYTE COUNT [3]: 5.38 x10E6/uL
- HEMATOCRIT [3]: 33.5%
- HEMOGLOBIN [3]: 12.6 G/DL
- LEUKOCYTE COUNT [3]: 9.17 x10E3/uL
- LYMPHOCYTE [3]: 90.33%
- MEAN CORPUSCULAR HEMOGLOBIN [3]: 23.47 pg
- MEAN CORPUSCULAR HEMOGLOBIN CONCENTRATION [3]: 37.6 G/DL
- MEAN CORPUSCULAR VOLUME [3]: 62.3 fL
- MONOCYTE [3]: 2%
- NEUTROPHIL [3]: 7.67%
- NUCLEATED RED BLOOD CELLS [3]: 0 /100WBC
- PLATELET COUNT [3]: 1392.33 x10E3/uL
- ALANINE AMINOTRANSFERASE [3]: 63.67 u/L
- ALBUMIN [3]: 4.3 G/DL
- ALKALINE PHOSPHATASE [3]: 429.67 u/L
- ASPARTATE AMINOTRANSFERASE [3]: 69.33 u/L
- BLOOD UREA NITROGEN [3]: 14.33 mg/dL
- CARBON DIOXIDE [3]: 27.67 mmol/L
- CHLORIDE [3]: 105.67 MEQ/L
- CHOLESTEROL [3]: 54.33 mg/dL
- CREATINE PHOSPHOKINASE [3]: 189.33 u/L
- CREATININE [3]: 0.3 mg/dL
- GLUCOSE [3]: 155.33 mg/dL
- LACTATE DEHYDROGENASE [3]: 122.67 u/L
- LIPASE [3]: 8.33 u/L
- PHOSPHORUS [3]: 13.03 mg/dL
- POTASSIUM [3]: 5.65 MEQ/L
- SODIUM [3]: 149.97 MEQ/L
- TOTAL BILIRUBIN [3]: 0.2 mg/dL
- TOTAL PROTEIN [3]: 5.87 G/DL
- URIC ACID [3]: 1.2 mg/dL
- ABSOLUTE BASOPHIL [4]: 0 CELLS/uL
- ABSOLUTE EOSINOPHIL [4]: 100.67 CELLS/uL
- ABSOLUTE LYMPHOCYTE [4]: 14254 CELLS/uL
- ABSOLUTE MONOCYTE [4]: 107 CELLS/uL
- ABSOLUTE SEGMENTED NEUTROPHIL [4]: 1271.67 CELLS/uL
- BASOPHIL [4]: 0%
- EOSINOPHIL [4]: 0.67%
- ERYTHROCYTE COUNT [4]: 5.79 x10E6/uL
- HEMATOCRIT [4]: 36.33%
- HEMOGLOBIN [4]: 13.6 G/DL
- LEUKOCYTE COUNT [4]: 15.73 x10E3/uL
- LYMPHOCYTE [4]: 90.67%
- MEAN CORPUSCULAR HEMOGLOBIN [4]: 23.5 pg
- MEAN CORPUSCULAR HEMOGLOBIN CONCENTRATION [4]: 37.43 G/DL
- MEAN CORPUSCULAR VOLUME [4]: 62.73 fL
- MONOCYTE [4]: 0.67%
- NEUTROPHIL [4]: 8%
- NUCLEATED RED BLOOD CELLS [4]: 0 /100WBC
- PLATELET COUNT [4]: 1276.33 x10E3/uL
- ALANINE AMINOTRANSFERASE [4]: 63.67 u/L
- ALBUMIN [4]: 4.2 G/DL
- ALKALINE PHOSPHATASE [4]: 501 u/L
- ASPARTATE AMINOTRANSFERASE [4]: 81.67 u/L
- BLOOD UREA NITROGEN [4]: 16 mg/dL
- CARBON DIOXIDE [4]: 26.33 mmol/L
- CHLORIDE [4]: 105.33 MEQ/L
- CHOLESTEROL [4]: 59.33 mg/dL
- CREATINE PHOSPHOKINASE [4]: 219 u/L
- CREATININE [4]: 0.25 mg/dL
- GLUCOSE [4]: 178 mg/dL
- LACTATE DEHYDROGENASE [4]: 91 u/L
- LIPASE [4]: 9 u/L
- PHOSPHORUS [4]: 15.37 mg/dL
- POTASSIUM [4]: 5.6 MEQ/L
- SODIUM [4]: 146.8 MEQ/L
- TOTAL BILIRUBIN [4]: 0.17 mg/dL
- TOTAL PROTEIN [4]: 6.13 G/DL
- URIC ACID [4]: 2.13 mg/dL
